Data as given in patent US7157561B2, “Methods of inhibiting transmission of a costimulatory signal of lymphocytes” (Roche Diagnostics Operations, Inc., priority 2001, dated 2007).

Key:
antibody ATZ 4.1 = assay: Antibody specificity ELISA (competition of free drug with atazanavir-BSA conjugate), antibody ATZ 4.1; format: binding, mouse; conditions: for ED50 (M/L): free drug concentration giving 50% of binding in absence of free drug, 4-parameter logistic fit; for % Cross Rx: relative to atazanavir ED50
Procedure: (§1) Screening of growing hybridomas was carried out by an ELISA using the atazanavir-BSA conjugate (7) and free atazanavir. Microplates were coated with 50 μL atazanavir-BSA conjugate at 1 μg/mL in 0.1 M carbonate buffer, pH 9.5 for 1 hour at 37° C. (humidified). The plates were then emptied and filled with a post-coat solution consisting of Tris buffer, 1% gelatin hydrolysate, 2% sucrose, and 0/17% TWEEN 20 (all from Sigma Chemical Co.). The plates were incubated for an additional 1 hour at 37° C. (humidified) after which they were washed with phosphate-buffered saline containing 0.1% TWEEN 20. The plates were then filled with a 2% sucrose solution in 0.15 M Tris, pH 7.2–7.4 briefly, then emptied and allowed to air dry at room temperature. When dried, the plates were packed in zip-lock bags containing several desiccant pillows, sealed, and stored at 4° C. until use.
(§2) When the growing clones were judged ready for testing, 25 μL of supernatant from the wells were taken and transferred to 96-well flexible plates. Culture medium was added to each well to provide a 1:10 dilution of the media sample. Two atazanavir-BSA coated wells were used for each culture well tested. One well received 25 μL of PBS buffer, the other received 25 μL of PBS containing atazanavir drug at a concentration of 800 ng/ml. Twenty-five microliters of the diluted sample were transferred to each of two of the coated wells above. The plates were incubated covered for 1 hour at 37° C., then washed with PBS-TWEEN. The wells were then filled with 100 μL of goat anti-mouse IgG-HRP conjugate (Zymed Labs) diluted 1:5,000 in PBS-TWEEN and the plates re-incubated for 1 hour. The plates were then washed again, and 100 μL of K-BLUE SUBSTRATE (Neogen Corp) were added to each well. This was allowed to develop for 5–15 minutes, the reaction being stopped by the addition of 100 μL of 1 N HCl. Color was read via a microplate reader at 450 nm and collected by computer for analysis. Criteria for selection were binding to the well in which the PBS was added and significant inhibition of binding in the well receiving the free drug.
(§3) The antibody containing culture supernatants from the expansion cultures were subjected to specificity analysis by the following procedure. First, the titer appropriate for analysis was determined by dilution analysis. A dilution of antibody providing for approximately 50% of maximal binding was selected for proceeding to the next step. Second, binding to the atazanavir-BSA conjugate was examined at the above antibody dilution, in the presence of varying amounts of seven HIV protease inhibitor drugs. The data was subjected to analysis by non-linear regression curve fitting to a 4-parameter logistic function. That parameter which describes the concentration of the free drug which corresponds to 50% of the binding in the absence of free drug is termed the ED50 for that drug. The specificity of the antibody can thus be described by comparing the ED50 of the cognate drug, atazanavir, or atz ED50 with the other values for other drugs fitted from those data according to the following equation (using nelfinavir data for this example):
(§4) [formula] The four parameter logistic function used is
(§5) [formula] where S is the curvature parameter, ODmax is the optical density with 0 drug concentration, ODmin is the optical density of the background of the instrument, and ODx is the optical density observed at drug concentration X in moles/liter (M/L).
(§6) Atazanavir metabolite is 4-pyridin-2-yl-benzoic acid (Synchem, Inc.).

antibody ATZ 3.1 = assay: Antibody specificity ELISA (competition of free drug with atazanavir-BSA conjugate), antibody ATZ 3.1; format: binding, mouse; conditions: for ED50 (M/L): free drug concentration giving 50% of binding in absence of free drug, 4-parameter logistic fit; for % Cross Rx: relative to atazanavir ED50
Procedure: as §1, §2, §3, §4, §5, §6

| SMILES | ED50 (M/L) (antibody ATZ 4.1) | % Cross Rx (antibody ATZ 4.1) | ED50 (M/L) (antibody ATZ 3.1) | % Cross Rx (antibody ATZ 3.1) |
| --- | --- | --- | --- | --- |
| COC(=O)N[C@H](C(=O)N[C@@H](Cc1ccccc1)[C@@H](O)CN(Cc1ccc(-c2ccccn2)cc1)NC(=O)[C@@H](NC(=O)OC)C(C)(C)C)C(C)(C)C [Atazanavir, atazanavir] | 4.4 × 10^−6 M/L | 100% | 7 × 10^−7 M/L | 100% |
| Cc1cccc(C)c1OCC(=O)N[C@@H](Cc1ccccc1)[C@@H](O)C[C@H](Cc1ccccc1)NC(=O)[C@H](C(C)C)N1CCCNC1=O [Lopinavir, lopinavir] | >2 × 10^−6 M/L | <1% | >2 × 10^−6 M/L | <1% |
| CC(C)(C)NC(=O)[C@@H]1C[C@@H]2CCCC[C@@H]2CN1C[C@@H](O)[C@H](Cc1ccccc1)NC(=O)[C@H](CC(N)=O)NC(=O)c1ccc2ccccc2n1 [Saquinavir, saquinavir] | >2 × 10^−6 M/L | <1% | >2 × 10^−6 M/L | <1% |
| CC(C)(C)NC(=O)[C@@H]1CN(Cc2cccnc2)CCN1C[C@@H](O)C[C@@H](Cc1ccccc1)C(=O)N[C@H]1c2ccccc2C[C@H]1O [Indinavir, indinavir] | >2 × 10^−6 M/L | <1% | >2 × 10^−6 M/L | <1% |
| CC(C)CN(C[C@@H](O)[C@H](Cc1ccccc1)NC(=O)O[C@H]1CCOC1)S(=O)(=O)c1ccc(N)cc1 [Amprenavir, amprenavir] | >2 × 10^−6 M/L | <1% | >2 × 10^−6 M/L | <1% |
| O=C(O)c1ccc(-c2ccccn2)cc1 [Atazanavir metabolite, 4-pyridin-2-yl-benzoic acid] | >2 × 10^−6 M/L | <1% | >2 × 10^−6 M/L | <1% |
| CC(C)c1nc(CN(C)C(=O)N[C@H](C(=O)N[C@@H](Cc2ccccc2)C[C@H](O)[C@H](Cc2ccccc2)NC(=O)OCc2cncs2)C(C)C)cs1 [Ritonavir, ritonavir] | >2 × 10^−6 M/L | <1% | >2 × 10^−6 M/L | <1% |
| Cc1c(O)cccc1C(=O)N[C@@H](CSc1ccccc1)[C@H](O)CN1C[C@H]2CCCC[C@H]2C[C@H]1C(=O)NC(C)(C)C [Nelfinavir, nelfinavir] | >2 × 10^−6 M/L | <1% | >2 × 10^−6 M/L | <1% |
